According to article PMC4167909 (Analytical biochemistry, 2014):

Columns and labels:
[1] = biological target: T1, OXA-24/40 (Acinetobacter baumannii, UniProt Q8RLA6); assay: competitive inhibition of ampicillin hydrolysis; assay type: biochemical
[2] = biological target: OXA-24/40 (Acinetobacter baumannii, UniProt Q8RLA6, V130D); assay: SDS-PAGE fluorescent acyl-enzyme detection, single-turnover conditions; assay type: binding
[3] = biological target: T1, OXA-24/40; assay: kinetic competition with ampicillin as reporter substrate; assay type: biochemical

Row | SMILES | Ki [1] | SDS-PAGE fluorescent acyl-enzyme detection, single-turnover conditions [2] | Ki [3]
1 | C[C@@H](O)[C@H]1C(=O)N2C(C(=O)O)=C(S[C@H]3C[C@@H](C(=O)N(C)C)N(C(=S)Nc4ccc5c(c4)C(=O)OC54c5ccc(O)cc5Oc5cc(O)ccc54)C3)[C@H](C)[C@H]12 [FM, fluorescein-meropenem] | 43 nM | All Val130 substitutions showed some degree of fluorescence labeling, but the Val130Asp, Val130Thr and Val130Asn substitutions most severely reduced deacylation | 
2 | C[C@@H](O)[C@H]1C(=O)N2C(C(=O)O)=C(S[C@@H]3CN[C@H](C(=O)N(C)C)C3)[C@H](C)[C@H]12 [meropenem] |  |  | 18 nM
